According to article PMC10587871 (Bioconjugate Chemistry, 2023):
Where a SMILES comes first, the peptide text is derived from it. The star is where a group is joined. 5FAM = O=C1OC2(c3ccc(O)cc3Oc3cc(O)ccc32)c2ccc(C(=O)*)cc21

The compounds below were run on MM6 cell line. Settings: 5(6)-FAM-labeled peptides 10 μM, MM6 cells, 2 h, flow cytometry FITC channel, trypan blue quenching.

Q: Which “Internalization (cellular uptake) profile” value (shortened to “Internalization”) does the source give for CC[C@H](C)[C@H](NC(=O)[C@H](CCCCN)NC(=O)[C@H](CCC(=O)O)NC(=O)[C@H](Cc1ccc(O)cc1)NC(=O)[C@@H]1CCCN1C(=O)[C@H](CC(=O)O)NC(=O)c1ccc2c(c1)C(=O)OC21c2ccc(O)cc2Oc2cc(O)ccc21)C(=O)NCC(=O)N[C@@H](C)C(=O)N[C@@H](CCC(=O)O)C(=O)N[C@@H](CC(C)C)C(=O)N[C@H](C(=O)N[C@@H](CCCCN)C(N)=O)C(C)C [Grol2 (63–78)] here?
A: The value was “highest cell internalization among MHC II binding epitopes”.

Q: C[C@H](NC(=O)[C@H](C)NC(=O)[C@H](CCCCN)NC(=O)[C@H](CCCCN)NC(=O)[C@H](C)NC(=O)[C@@H]1CCCN1C(=O)[C@H](C)NC(=O)[C@H](CCCCN)NC(=O)c1ccc2c(c1)C(=O)OC21c2ccc(O)cc2Oc2cc(O)ccc21)C(=O)N[C@@H](C)C(=O)N[C@@H](CCCCN)C(N)=O [HBHA (185–194)] (5FAM-KAPAKKAAAK-NH2) was tested. Which “Internalization” value did it give?
A: The value was “significant cellular uptake”.

Q: How did the “Internalization” value turn out when CC[C@H](C)[C@H](NC(=O)[C@H](C)NC(=O)[C@H](CCC(N)=O)NC(=O)[C@H](Cc1c[nH]c2ccccc12)NC(=O)[C@H](CC(C)C)NC(=O)[C@H](CCCCN)NC(=O)[C@H](CCCCN)NC(=O)[C@@H](NC(=O)[C@H](Cc1ccc(O)cc1)NC(=O)[C@H](C)NC(=O)c1ccc2c(c1)C(=O)OC21c2ccc(O)cc2Oc2cc(O)ccc21)[C@@H](C)O)C(=O)N[C@@H](CCCNC(=N)N)C(=O)N[C@@H](C)C(=O)N[C@@H](CCC(N)=O)C(=O)N[C@@H](CC(=O)O)C(=O)N[C@H](C(N)=O)C(C)C [RpfA (377–391)] (5FAM-AYTKKLWQAIRAQDV-NH2) was run?
A: Its value is “weak internalization profile”.

Q: How did the “Internalization” value turn out when CC(C)[C@H](NC(=O)[C@H](C)NC(=O)[C@@H](NC(=O)CNC(=O)[C@H](C)NC(=O)c1ccc2c(c1)C(=O)OC21c2ccc(O)cc2Oc2cc(O)ccc21)[C@@H](C)O)C(=O)N[C@@H](CCC(N)=O)C(=O)N[C@@H](CC(=O)O)C(=O)N[C@@H](CO)C(=O)N[C@@H](CCCNC(=N)N)C(=O)N[C@@H](CO)C(=O)N[C@@H](Cc1c[nH]cn1)C(=O)N[C@H](C(=O)N[C@@H](Cc1ccc(O)cc1)C(=O)N[C@@H](C)C(=O)N[C@@H](Cc1c[nH]cn1)C(N)=O)C(C)C [Rv1733c (63–77)] (5FAM-AGTAVQDSRSHVYAH-NH2) was run?
A: The value was “weak internalization profile”.
